# From publication PMC8536627, “Hydrolytic stability of anticancer drugs and one metabolite in the aquatic environment” (Environmental Science and Pollution Research International, 2021)
# Entries after “also recorded” stand apart in the source; their conditions may differ. Read-outs that look alike come from different tables or passages of the source.
# Legend:
# physchem [1] = settings: 5 days; for Degradation level in the preliminary test: dark
# Procedure: The incubation was performed in the dark, in order to avoid the influence of the photolysis on degradation of the analytes. The water used for the preparation of buffers was autoclaved, all glassware was clean, flushed with methanol, and dried in high temperature. Samples were closed in glass tubes with a sealed cap. The air from above the solution was removed by a nitrogen stream just before capping. In the preliminary test, solutions of single analytes were prepared in each tested pH: 4, 7, and 9, which is required by the OECD guidelines. There was also a blank sample prepared for each pH. Samples in the preliminary test were prepared in two parallel replicates. Moreover, the complete preliminary test was repeated twice. The preliminary test was performed at 50 °C for 5 days. […] In the case of the extended tests, 7 measuring points were provided during the time of the test. Each measuring point was performed in two parallel replicates. […] The test was conducted for 30 days or to 90 % elimination of a compound. Obtained results were used to determine the hydrolysis rate constant (k) using equation: 1 lnCt/C0=kt
# The HPLC-UV/Vis technique was applied to determine the level of hydrolytic degradation of the analytes. In the preliminary test, the control and blank samples were analyzed at the beginning and the end of the test. […] In the extended test, the samples collected in the time intervals were analyzed, and peak areas were compared to those obtained at the beginning of the test. This was used to determine the kinetic of this hydrolysis process by using the Equation 1. In general, each analyte was analyzed by a simple HPLC method with UV/Vis detection. Gemini C18 (Phenomenex, USA), 5 μm, 110 Å, 150 mm × 4.6 mm chromatographic column was applied for each method and three different mobile phases were used (water or 0.1 % HCOOH) mixed with the acetonitrile. The conditions applied during the LC-MS analysis with an ion trap detector for the qualitative analysis of the samples collected after the extended tests at 20 and 70 °C are presented in the Table S2.
# physchem [2] = format: physicochemical
# Procedure: Moreover, the complete preliminary test was repeated twice. […] Each measuring point was performed in two parallel replicates.
# where t, time; ct, c0, concentration of the analyte at a time (0 means the beginning of the test); k, rate constant.
# Based on this, the t1/2 was determined by using the equation: 2 t1/2=ln2/k
# where t1/2, half-life of the analyte; k, rate constant.
# The degradation was monitored for 30 days or until 90 % of a compound was degraded. Based on the obtained results (Fig. 4) the constant rates (k) and half-lives (t1/2) have been calculated (Table 1).
# After determining the hydrolysis rate constants it was possible to calculate activation energy (Ea) of this process at each pH, either from plotting ln k from T^−1 (Figure 5) when there were three k values obtained for each compound and pH (CP at pH 4, 7, and 9 as well as IF at pH 4) or from the following equation (for IF at pH 7 and 9, where only two k values were obtained) (Table 1): 4 E=Rlnk2−lnk1/1/T1¯−1/T2
# where R, gas constant (8.314 J/mol × K); k1, k2, rate constants for different temperatures; T, absolute temperature (K).
# physchem [3] = format: physicochemical; settings: for half-life: buffer, read-out: t½, extrapolated half-life (converted)
# Procedure: By obtaining at least two rate constants for two different temperatures, it is possible to calculate the rate constants and, in consequence, half-lives at other temperatures, according to the Arrhenius equation: 3 k=A×e^−E/R×Torlnk=−E/R×T+lnA
# Therefore, these equations were applied to extrapolate the obtained results and calculate the rate constants and half-lives of unstable anticancer drugs in more environmentally relevant temperatures (4, 10, or 15 °C), which are typical to natural waters.
# Additionally, these observations confirm that CP is much more vulnerable for hydrolysis than IF, which is interesting how two isomers (like CP and IF) may differently undergo hydrolysis process. […] If the conclusions were drawn only based on the results from the preliminary experiments (incubation at 50 °C for 5 days), it would be assumed that both compounds, especially CP, are very unstable. […] Moreover, using Equation 3, it was possible to extrapolate the results to determine the rate constants and half-lives at the temperatures 4, 10, and 15 °C, which are ordinary for environmental waters (Table 2).
# [4] = room temperature, ref Franquet-Griell et al. [2017], cited from earlier work
# [5] = dark conditions, 20 °C, ref Buerge et al. ([2006]); cited from earlier work
# [6] = 20 °C, ref Gilard et al. ([1994]), cited from earlier work
# [7] = pH 7 and 8.1, 5 days, calculated; ref Booker et al. ([2014]); cited from earlier work
# [8] = HPLC water with 4 % DMSO, ref Negreira et al. ([2013a]), cited from earlier work
smiles,measurement,setting,value
"O=P1(N(CCCl)CCCl)NCCCO1 (stereo not shown) [CP, cyclophosphamide]",Hydrolytic stability in the preliminary test,"physchem [1]; pH 4, 7 and 9, 50 °C",unstable; also recorded: susceptible to hydrolysis
same,Degradation level in the preliminary test,"physchem [1]; pH 4, 50 °C",completely eliminated
same,Degradation level in the preliminary test,"physchem [1]; pH 7, 50 °C",91.6%
same,Degradation level in the preliminary test,"physchem [1]; pH 9, 50 °C",completely eliminated
same,Degradation of initial amount in 30 days,"physchem [2]; 20 °C, 30 days, pH not specified (pH 4, 7, 9 tested)",around 20%
same,half-life,"physchem [2]; 20 °C, all pH, read-out: Half-life (converted)",~80 days
same,"k, hydrolysis rate constant","physchem [2]; 20 °C, pH 4",0.00035 h⁻¹
same,"k, hydrolysis rate constant","physchem [2]; 20 °C, pH 7",0.00038 h⁻¹
same,"k, hydrolysis rate constant","physchem [2]; 20 °C, pH 9",0.00037 h⁻¹
same,"k, hydrolysis rate constant","physchem [2]; 50 °C, pH 4",0.025 h⁻¹
same,"k, hydrolysis rate constant","physchem [2]; 50 °C, pH 7",0.024 h⁻¹
same,"k, hydrolysis rate constant","physchem [2]; 50 °C, pH 9",0.024 h⁻¹
same,half-life,"physchem [2]; 50 °C, range over three pH values, read-out: t½, half-life (converted)",1.15 to 1.23 days
same,"k, hydrolysis rate constant","physchem [2]; 70 °C, pH 4",0.27 h⁻¹
same,"k, hydrolysis rate constant","physchem [2]; 70 °C, pH 7",0.28 h⁻¹
same,"k, hydrolysis rate constant","physchem [2]; 70 °C, pH 9",0.27 h⁻¹
same,half-life,"physchem [2]; buffer, pH 4, 20 °C, pH 4, read-out: t½, half-life (converted)",81.8 days
same,half-life,"physchem [2]; buffer, pH 4, 50 °C, pH 4, read-out: t½, half-life (converted)",1.15 days
same,half-life,"physchem [2]; buffer, pH 4, 70 °C, pH 4, read-out: t½, half-life (converted)",0.108 days
same,half-life,"physchem [2]; buffer, pH 4, 70 °C, range over pH 4, 7, 9, read-out: t½, half-life (converted)",0.104 to 0.108 days
same,half-life,"physchem [2]; buffer, pH 7, 20 °C, pH 7, read-out: t½, half-life (converted)",77.8 days
same,half-life,"physchem [2]; buffer, pH 7, 50 °C, pH 7, read-out: t½, half-life (converted)",1.23 days
same,half-life,"physchem [2]; buffer, pH 7, 70 °C, pH 7, read-out: t½, half-life (converted)",0.104 days
same,half-life,"physchem [2]; buffer, pH 9, 20 °C, pH 9, read-out: t½, half-life (converted)",78.9 days
same,half-life,"physchem [2]; buffer, pH 9, 50 °C, pH 9, read-out: t½, half-life (converted)",1.2 days
same,half-life,"physchem [2]; buffer, pH 9, 70 °C, pH 9, read-out: t½, half-life (converted)",0.104 days
same,"Ea, activation energy of hydrolysis",physchem [2]; pH 4,26.58 kcal/mol
same,"Ea, activation energy of hydrolysis",physchem [2]; pH 7,26.43 kcal/mol
same,"Ea, activation energy of hydrolysis",physchem [2]; pH 9,26.41 kcal/mol
same,"Ea, activation energy of hydrolysis","physchem [2]; range over pH 4, 7, 9",26.41 to 26.58 kcal/mol
same,"k, extrapolated rate constant","physchem [3]; 4 °C, pH 4",5.1e-05 h⁻¹
same,"k, extrapolated rate constant","physchem [3]; 4 °C, pH 7",5.3e-05 h⁻¹
same,"k, extrapolated rate constant","physchem [3]; 4 °C, pH 9",5.3e-05 h⁻¹
same,"k, extrapolated rate constant","physchem [3]; 10 °C, pH 4",7.1e-05 h⁻¹
same,"k, extrapolated rate constant","physchem [3]; 10 °C, pH 7",7.4e-05 h⁻¹
same,"k, extrapolated rate constant","physchem [3]; 10 °C, pH 9",7.3e-05 h⁻¹
same,"k, extrapolated rate constant","physchem [3]; 15 °C, pH 4",0.000161 h⁻¹
same,"k, extrapolated rate constant","physchem [3]; 15 °C, pH 7",0.000166 h⁻¹
same,"k, extrapolated rate constant","physchem [3]; 15 °C, pH 9",0.000166 h⁻¹
same,half-life,"physchem [3]; pH 4, 4 °C, pH 4",568 days
same,half-life,"physchem [3]; pH 4, 10 °C, pH 4",406 days
same,half-life,"physchem [3]; pH 4, 15 °C, pH 4",179 days
same,half-life,"physchem [3]; pH 7, 4 °C, pH 7",549 days
same,half-life,"physchem [3]; pH 7, 10 °C, pH 7",393 days
same,half-life,"physchem [3]; pH 7, 15 °C, pH 7",174 days
same,half-life,"physchem [3]; pH 9, 4 °C, pH 9",550 days
same,half-life,"physchem [3]; pH 9, 10 °C, pH 9",394 days
same,half-life,"physchem [3]; pH 9, 15 °C, pH 9",174 days
same,Hydrolytic stability in milli-Q water,"[4]; milli-Q water, natural pH",stable
same,Stability during a 48-h test in pure water,"[4]; pure water, 48 h",stable
same,Half-life in lake water,[5],around 80 days
same,Initial concentration present after 7 days,"[6]; pH 3.4–8.6, 7 days",over 95%
same,Maximum degradation after 17 days,"[6]; pH 3.4–8.6, 17 days",≤ 20%
same,Stability assessed with SPARC from molecular structure,[7],stable
same,Stability in 24 h test,[8]; 4 °C,stable
same,Long-term stability at 4 °C,[8]; 4 °C,stable for 1 month
same,Stability in 24 h test,[8]; 15 °C,still stable
same,Stability in 24 h test,[8]; 25 °C,remained stable
